By melting point is commonly meant the temperature of the solid-liquid transition.

The structures appear in SMILES notation. Read-outs that look alike come from different tables or passages of the source.

One data set deals with T1, apoaequorin (Aequorea victoria, UniProt P07164).
T1 construct: OmpA signal peptide (N, cleaved yes); made in house; host or cells: Escherichia coli strain WA802
The class given is biochemical. Here is the method: Apoaequorin (0.5 mg, 22 nmol) was mixed with 10 μl of coelenteramide (1.2 μg/μl, 29 nmol, in anhydrous methanol) in 1 ml of 50 mM Tris-HCl (pH 7.6) containing 10 mM CaCl2 and 1 mM DTT. […] Subsequently, syn-BFP was treated at 4° C., 5,000×g for 20 minutes using centrifugal concentrator Vivaspin 2 (10,000 MWCO, Sartorius AG, Germany) to concentrate the mixture to 0.1 ml.
Regarding the production of synthetic gFP (syn-gFP) from apoaequorin and coelenteramide, apoaequorin (0.5 mg, 22 nmol) was mixed with 10 μl of coelenteramide (1.2 μg/μl, 29 nmol, in anhydrous methanol) in 1 ml of 50 mM Tris-HCl (pH 7.6) containing 10 mM EDTA and 1 mM DTT. […]
Absorption spectra were measured at 25° C. with a Jasco (Tokyo, Japan) V-560 spectrophotometer (bandwidth: 0.5 nm, response, medium; scan speed, 100 nm/min.) using a quartz cuvette (10 mm light path). Also, fluorescence spectra were measured on a Jasco FP-6500 fluorescence spectrophotometer (emission/excitation bandwidth: 3 nm, response: 0.5 sec., scan speed: 1000 nm/min.).

T1 sequence (P07164 other isoform, or with tags, fused parts or gaps with the stated changes): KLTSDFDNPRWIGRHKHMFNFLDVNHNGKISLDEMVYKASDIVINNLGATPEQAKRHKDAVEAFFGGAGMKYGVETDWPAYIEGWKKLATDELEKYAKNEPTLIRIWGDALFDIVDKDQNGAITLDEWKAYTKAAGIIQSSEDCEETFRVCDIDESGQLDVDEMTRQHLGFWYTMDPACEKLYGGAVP

Consider `O=C(Cc1ccc(O)cc1)Nc1ncc(-c2ccc(O)cc2)nc1Cc1ccccc1` [Coelenteramide, coelenteramide], for which the “Fluorescence intensity (rlu) (excited at 332 nm)” value is given as 25.4 rlu at apoaequorin (10 mM Ca^2+ (Imax, 465 nm), +DTT, 0 hr); 28.4 rlu at apoaequorin (10 mM Ca^2+ (Imax, 465 nm), +DTT, 0.5 hr); 29.5 rlu on apoaequorin (10 mM Ca^2+ (Imax, 465 nm), +DTT, 16 hrs); 22.0 rlu at apoaequorin (10 mM Ca^2+ (Imax, 465 nm), -DTT series, then +DTT, 24 hrs); 9.8 rlu on apoaequorin (10 mM Ca^2+ (Imax, 465 nm), -DTT, 0 hr); 11.3 rlu on apoaequorin (10 mM Ca^2+ (Imax, 465 nm), -DTT, 16 hrs). Moreover, the “Fluorescence intensity (rlu) (excited at 332 nm)” value is given as 20.2 rlu on apoaequorin (10 mM EDTA (Imax, 469.5 nm), +DTT, 0 hr); 22.7 rlu at apoaequorin (10 mM EDTA (Imax, 469.5 nm), +DTT, 0.5 hr); 23.1 rlu on apoaequorin (10 mM EDTA (Imax, 469.5 nm), +DTT, 16 hrs); 24.3 rlu at apoaequorin (10 mM EDTA (Imax, 469.5 nm), -DTT series, then +DTT, 24 hrs); 14.8 rlu on apoaequorin (10 mM EDTA (Imax, 469.5 nm), -DTT, 0 hr); 18.7 rlu on apoaequorin (10 mM EDTA (Imax, 469.5 nm), -DTT, 16 hrs).

In the case of `COc1ccc(CC(=O)Nc2ncc(-c3ccc(OC)cc3)nc2Cc2ccccc2)cc1` [IV, coelenteramide dimethyl ether], the melting point fell in the range of 189.5 to 191 °C.

The values are drawn from patent US8471015B2, “Process for producing a green fluorescent protein comprising coelenteramide or an analog thereof” (JNC Corporation, priority 2009, dated 2013).
